The source of these data is PubChem BioAssay (NCI).

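96-well plates; 48 h exposure; 5 concentrations. Endpoints by linear interpolation between flanking doses. Not reached: highest tested concentration assigned. GI50 is the concentration that inhibits growth by half. The concentration for full growth arrest is given as TGI.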

What all share (experiment): inhibition of tumour cell growth, NCI panel, 48 h
The subject of assay [1] is HOP-62 NSCLC.
In assay [2] the test system is U251 CNS.
Assay [3] deals with HT29 colon.
In assay [4] the test system is HCT-15 colon.
For assay [5], the system named is NCI-H226 lung.
The subject of assay [6] is SK-MEL-2 melanoma.
Assay [7] has as its system LOX IMVI melanoma.
The test system of assay [8] is RPMI-8226 leukemia.
Assay [9] concerns IGROV1 ovarian.

As to `CC(=O)O[C@H]1C=CC23OC(=O)[C@]1(C)[C@H]2[C@H](C(=O)O)C12CC(=O)[C@@](CO)(CC[C@H]13)C2`, the TGI in assay [1], in assay [2], in [3], in [4], in assay [5] and in assay [6] was above 100 µM throughout. Besides, the TGI in assay [7], in assay [8] and in [9] was above 100 µM throughout.
`O=C(/C(=C/c1ccccc1)c1ccccc1)N1c2ccccc2CC1c1c[nH]c2ccccc12` (stereo unspecified): the TGI was above 100 µM in assay [1]; above 100 µM in assay [2]; above 100 µM in assay [3]; above 100 µM in [4]; above 100 µM in assay [5]; 81.9 µM in assay [6]. The TGI in assay [7], in [8] and in assay [9] was above 100 µM throughout.
As for `O=S(=O)(O)ONC1=NCCN1`, the GI50 in [1] is above 100 µM; in assay [2], above 100 µM; in [3] it was 58.1 µM; in [4], above 100 µM; in [5], above 100 µM; in assay [6], above 100 µM. The GI50 is 76.6 µM in assay [7], 46.1 µM in assay [8] and above 100 µM in assay [9]. In addition, the TGI in [1], in [2], in assay [3], in assay [4], in assay [5] and in [6] was above 100 µM in each case. Also, the TGI in assay [7], in [8] and in assay [9] was above 100 µM in each case.
As for `C#CCN(C)C(=O)N(CC#C)N=O`, the TGI in assay [1], in assay [2], in [3], in assay [4], in assay [6] and in assay [7] was above 100 µM each time. For the same compound, the TGI in assay [8] and in assay [9] was above 100 µM throughout.
Consider `COC(=O)C1CC(C(=O)OC)c2nc3cc(C)c(C)cc3nc21` (stereo unspecified), for which the TGI in assay [1], in [2], in assay [3], in assay [4], in assay [5] and in assay [6] was above 100 µM each time. The TGI in assay [7], in assay [8] and in [9] was above 100 µM throughout.
As for `C[N+](C)(C)CC1CCCC/C1=N\O` (stereo unspecified), the TGI in [1], in assay [2], in [3], in [4], in assay [6] and in assay [7] was above 100 µM in each case. The TGI in assay [8] and in assay [9] was above 100 µM each time.
`C[n+]1c(N)n(C(=O)OCc2ccccc2)c(=O)c2c1ncn2C(=O)OCc1ccccc1`: the TGI in [1] was above 100 µM; in assay [2] it was above 100 µM; in assay [3], above 100 µM; in assay [4], above 100 µM; in assay [5] it was 59.8 µM; in assay [6] it was above 100 µM. The TGI in assay [7], in [8] and in [9] was above 100 µM throughout.
`COc1cc([C@@H]2c3cc4c(cc3C[C@H]3COC(=O)[C@@H]32)OCO4)cc2c1OCO2`: the TGI in assay [1] was above 82 µM; in [2], above 100 µM; in [3], below 0.01 µM; in [4], above 100 µM; in assay [5], below 0.01 µM; in assay [6] it was below 0.01 µM. Besides, the TGI is above 68.2 µM in [7], above 100 µM in assay [8] and 0.048 µM in assay [9].
For the compound `Cn1ccnc1C[N-]Cc1nccn1C.O=[N+]([O-])[O-].O=[N+]([O-])[O-].[Cu+2]`, the GI50 in [1], in assay [2], in assay [3], in assay [5], in [7] and in [8] was above 100 µM throughout. Besides, the GI50 in assay [9] is above 100 µM. Also, the TGI in assay [1], in [2], in assay [3], in assay [5], in [7] and in assay [8] was above 100 µM each time. The TGI in [9] was above 100 µM.
On to `CN(C)CCNc1nc(-c2cccs2)cc(-c2cccs2)n1`, for which the TGI in assay [1] was determined as 40.7 µM; in [2], 24.4 µM; in assay [3] it was 22.2 µM; in assay [4], 33.2 µM; in [5], 30.5 µM; in assay [6] it was 32.9 µM. The results for the TGI in assay [7] and in assay [9] were 22.7 µM and 69.2 µM, respectively.
Consider `O=C(Nc1cccc(C(F)(F)F)c1)c1cc(Br)cc(Br)c1O`, for which the TGI in assay [1] is above 10 µM; in [2], above 10 µM; in assay [3], above 10 µM; in assay [4], above 10 µM; in [5], 9.42 µM; in [6] it was 5.07 µM. In addition, the TGI in assay [7] is 4.95 µM; in assay [8], 5.86 µM; in [9], above 10 µM.
For `COc1ccc(C2=NOP(c3ccccc3)(c3ccccc3)(c3ccccc3)C2)cc1`, the TGI in [1] was above 100 µM; in assay [2], above 93.1 µM; in [3] it was above 48.5 µM; in assay [4] it was above 53 µM; in assay [5] it was 98.4 µM; in assay [6], above 60 µM. Moreover, the TGI in assay [7] was 27.1 µM; in [8], 33.5 µM; in [9] it was above 100 µM.
Turning to `Cc1ccc(NC(=O)CCC(=O)C(C#N)c2ccccc2)cc1C` (stereo unspecified), the TGI in [2], in assay [3], in [4], in assay [5], in [6] and in assay [7] was above 100 µM throughout. In addition, the TGI in assay [8] and in assay [9] was above 100 µM each time.
With `COc1cc2c(cc1OC)-c1ncc3cc4c(cc3c1C2)OCO4`, the GI50 in assay [2] is 41.4 µM; in assay [3], above 100 µM; in assay [4], above 100 µM; in assay [6], 32.2 µM; in [7], above 100 µM; in assay [8] it was 5.57 µM. For the same compound, the GI50 in assay [9] is 25 µM. For the same compound, the TGI in assay [2] is above 100 µM; in assay [3], above 100 µM; in assay [4], above 100 µM; in assay [6], 75.8 µM; in assay [7], above 100 µM; in assay [8], above 100 µM. The compound further displayed a TGI in assay [9] of 59.6 µM.
For the compound `COc1ccc2nc3cccc(C(=O)NCCN(C)C)c3nc2c1`, the TGI in assay [1] is 3.76 µM; in [2], 11.3 µM; in assay [3] it was 6.63 µM; in assay [4] it was 6.15 µM; in [5] it was 3.85 µM; in assay [6], 3.68 µM. Moreover, the TGI in [7] is 2.45 µM; in assay [8], 27.6 µM; in [9], above 48.2 µM.
Turning to `CCOC(=O)/N=c1/nc(N(C)C)ss1`, the TGI in [1], in [2], in assay [3], in [4], in assay [5] and in [6] was above 100 µM each time. Further, the TGI in assay [8] and in assay [9] was above 100 µM throughout.
As for `NCP(=O)(O)OCC(=O)O`, the TGI in assay [1], in [2], in [3], in [4], in assay [6] and in assay [7] was above 100 µM in each case. For the same compound, the TGI in assay [9] was above 100 µM.
As to `Nc1ccc(C(=O)N/C(=C\c2cccc([N+](=O)[O-])c2)c2nc3c4c(ccc3[nH]2)C(=O)c2ccccc2C4=O)cc1`, the TGI in [1], in [2], in assay [3], in assay [4], in assay [6] and in assay [7] was above 100 µM in each case. Also, the TGI in [8] and in assay [9] was above 100 µM throughout.
As to `C#Cc1cc2c(N)c(C(=O)c3cc(OC)c(OC)c(OC)c3)[nH]c2cc1OC`, the GI50 was 0.58 µM in assay [1]; 0.691 µM in [2]; 0.374 µM in [3]; 0.46 µM in [4]; 5.74 µM in [5]; 0.572 µM in [6]. The figures for the GI50 in assay [7], in assay [8] and in assay [9] were 0.656 µM, 1.84 µM and 2.05 µM, respectively. Further, the TGI was above 100 µM in [1]; above 100 µM in assay [2]; 76.2 µM in [3]; above 100 µM in assay [4]; above 100 µM in [5]; 62.9 µM in assay [6]. For the same compound, the TGI in assay [7] was above 100 µM; in assay [8], 20 µM; in [9], 74.9 µM.
Regarding `Nc1c(-c2nc3ccccc3[nH]2)sc(=S)n1-c1ccc(Cl)cc1`, the TGI in assay [1] is 47.3 µM; in [2] it was 53.9 µM; in assay [3] it was 42.6 µM; in assay [4] it was 61.8 µM; in assay [5], 52.2 µM; in assay [6], 63.8 µM. In addition, the TGI amounted to 50.5 µM in assay [7], 90.2 µM in assay [8] and 73.2 µM in [9].
For the compound `CCOC(=O)NC(=O)c1c[nH]c(=O)[nH]c1=O`, the TGI in [1], in assay [2], in assay [3], in [4], in assay [5] and in [6] was above 100 µM each time. Besides, the TGI in assay [7], in assay [8] and in assay [9] was above 100 µM throughout.
Turning to `C1C[OH+]CC[OH+]CC[OH+]CC[OH+]CC[OH+]CC[OH+]1.[Cl-].[Nb+5]`, the GI50 in assay [1], in [2], in assay [3], in assay [4], in [5] and in assay [6] was above 100 µM each time. For the same compound, the GI50 in assay [7], in [8] and in assay [9] was above 100 µM throughout. The TGI in assay [1], in [2], in assay [3], in assay [4], in assay [5] and in [6] was above 100 µM throughout. Also, the TGI in assay [7], in assay [8] and in assay [9] was above 100 µM throughout.
Consider `CN(C)CC1CCCC/C1=N/OC(=O)c1ccc(Cl)c(Cl)c1` (stereo unspecified), for which the TGI in assay [1], in assay [2], in assay [3], in assay [4], in assay [5] and in assay [6] was above 100 µM in each case. Further, the TGI in assay [7], in assay [8] and in assay [9] was above 100 µM each time.
In the case of `Nc1nc(N)c(-c2ccccc2)c(CCC(=O)Nc2ccc(Cl)cc2)n1`, the TGI in [1], in assay [2], in assay [3], in assay [4], in [5] and in assay [6] was above 100 µM throughout. Moreover, the TGI in assay [8] and in [9] was above 100 µM in each case.
Consider `CC1=C(C(=O)Nc2ccccc2)C(c2ccc(C(C)C)cc2)C(C(=O)Nc2ccccc2)=C(C)N1`, for which the TGI was determined as 85.7 µM in assay [1]; 45.1 µM in [2]; 29.9 µM in assay [3]; 61.4 µM in assay [4]; 54.9 µM in assay [5]; 31.2 µM in assay [6]. Also, the TGI in assay [7] is 30.4 µM; in assay [8], 29.8 µM; in assay [9], above 100 µM.
Regarding `CC(C)(C)OC(=O)N1N=NC2C3OC(CC3=O)C21` (stereo unspecified), the TGI was above 100 µM in assay [1]; above 100 µM in assay [2]; above 100 µM in [3]; above 100 µM in assay [4]; 8.96 µM in assay [5]; above 100 µM in assay [6]. The TGI in [7], in assay [8] and in [9] was above 100 µM throughout.
With `COc1ccc(C(=O)O/N=C2/CCC/C2=C\c2ccccc2)cc1`, the TGI in assay [1], in assay [2], in [3], in assay [4], in [5] and in assay [6] was above 100 µM throughout. The TGI in [7], in assay [8] and in [9] was above 100 µM each time.
